Source: patent publication US20200361987A1, “DEUTERATED TETRAPEPTIDES THAT TARGET MITOCHONDRIA” (STEALTH BIOTHERAPEUTICS CORP., priority 2017, published 2020)
Several values for one entry are separate records, joined by “and”; a condition that tells them apart may be missing. Identical values can stand only once. Square brackets hold non-standard residues; d marks the D form. Peptide text beside a SMILES is read from it. Dmt = Cc1cc(O)cc(C)c1C[C@H](N)C(=O)O

Experiments:
[1] = test system: CL:DOPC 1:3 liposomes (cardiolipin); test: Isothermal titration calorimetry (ITC) of test compound into CL:DOPC liposomes; type: binding; settings: 20 mM HEPES pH 7.4
Method: Example 18: Isothermal Titration Calorimetry (ITC) Study
1. Preparation of CL:DOPC 1:3 Liposomes (CL Concentration 0.1 mM)
146 μl of cardiolipin solution (5.1 mg/mL in EtOH, Sigma-Aldrich, C1649-10MG) were mixed with 1.2 mg 0.05 mg (exact weight, see Table 1) of DOPC (Avanti Polar Lipids, 850375P) and 20 mM HEPES buffer pH=7.4. Resulting solution was diluted up to 5 mL with the same buffer, vortexed for 2 min and sonicated in bath sonicator for 30 min at room temperature. Liposomes were produced by manual extrusion (Avestin, The LiposoFast-Stabilizer with a LiposoFast-Basic) through a 100 nm filter (Avestin, PC membranes 0.1 m or Avanti Polar Lipids, PC membranes 0.1 μm, 610005). Extrusion was performed for 21 times. EtOH concentration in sample is 2.9%. Obtained CL:DOPC solutions were tested for homogeneity by DLS (Malvern Instruments Ltd, Zetasizer Nano ZSP, instrument with Malvern Instruments Ltd software 7.11) using the following parameters—medium: water; refractive index: 1.33; viscosity: 0.8872 cP; temperature: 25° C.; nanoparticles: liposomes; refractive index of materials: 1.60; detection angle of 173°, a wavelength of 633 nm. All measurements were performed in triplicate.
2. Preparation of Test Compound Solutions
2 mg or 14 mg (exact weight, see Table 1) of test compound were dissolved in 20 mM HEPES buffer (pH=7.4, contains 2,9% (V/V) of EtOH) to obtain 0.7 mM concentration (for exact volumes see Table 3). Obtained solution was vortexed for 2 min.
3. ITC Titration Experiments
Instrument cell was washed and purged with ≈100 μL of CL:DOPC liposomes solution. After washing cell was filled with CL:DOPC liposomes solution. Injection syringe was loaded with test compound solution. Injection volumes were set to values shown in Table 2 and DP values were set to 2.5 μcal/sec in all experiments. Time between injections—105 seconds. Titration of each compound is performed in triplicate, results are reported as mean value±standard deviation (see Table 4).

[2] = Rat PK study, intravenous administration, plasma; type: in vivo; settings: intravenous 1 mg/kg; for AUC(0-inf): read-out: AUCINF_obs; for clearance: read-out: Cl_obs; for Vd: read-out: Vss_obs
Method: General Methods and Procedures of Rat PK Studies (Aptuit)
All test formulations will be prepared on the day of administration prior to dosing and used as soon as possible. All test formulations will be stored at room temperature, prior to administration.
The dose formulation(s) will be prepared and administered by volume. The target dose levels are detailed below:
Test substances discrete doses will be formulated in saline water at the final concentration of 0.5 mg/mL and intravenously administered at the volume of 2 mL/kg to rats.
Actual body weights of animals will be recorded on the day of dose administration. Doses volumes will be adjusted taking into account the weight of the animal at the time of dose administration. Doses formulations will be administered intravenously via tail vein (2 mL/kg); an aliquot of each dose formulation will be taken before administration. The actual dose received by each animal will be registered and residual volumes discarded.
After administration, serial blood samples will be collected from the lateral tail vein of each rat, then animals will be sacrificed humanely. Approximately 300 μL of Blood will be collected into EDTA tubes. Then exactly 240 μL of blood will be transferred into a micronic tube containing 10 μL of a solution (30 mg/mL NaF and 239 mg/mL Pefabloc) at each of the following time points post-dose (actual times will be recorded): 0.083, 0.25, 0.5, 1, 2, 4 and 8 hours after dosing. All blood samples will be thoroughly but gently mixed following collection and placed on wet ice. Blood will be centrifuged (3000 g for 10 min at approximately 4° C.) as soon as possible and two 50 μL aliquots of plasma will be transferred into micronic tubes. Residual blood will be discarded.
Plasma samples will be frozen at approximately −80° C. as soon as possible after preparation and stored until analysis.
Plasma samples will be assayed using a method based on protein precipitation with methanol followed by HPLC/MS-MS analysis with an optimized analytical method. Calibration standards (CS) and Quality control samples (QC) will be prepared on the day of analysis. Study samples, CS, QC and blanks will be spiked with an internal standard (IS) to improve the precision of the assay. Study samples will be analyzed together with CS, QC and blank samples (including also double blanks). From the calibration curve, the linear range of the analytical method will be determined and lower and upper limits of quantitation specified. Details of the conditions and methods used will be included in the report. All dosing solutions will be checked for accuracy and actual concentration will be reported.
The results for test substances in plasma will be subject to non-compartmental pharmacokinetic analysis using Phoenix WinNonlin 6.3 (see Section 8). The following parameters will be reported:
Calculated concentration of test item in the corresponding formulation (expressed as mg/mL). Dose levels (expressed as mg/kg). Actual collection times (expressed as hh:mm). Plasma concentrations (expressed as ng/mL). Quantitative information about 2 metabolites in Plasma. PK parameters (iv: Cmax, AUClast, AUCinf, CL, Vss, t1/2, if applicable; Abnormal clinical signs and relevant findings, if any.

| Compound | Ka ([1]; Average of replicates) [M⁻¹] | Kd ([1]; Average of replicates) [µM] | Ka ([1]; single replicate titration) | Kd ([1]; single replicate titration) | AUC(0-t) [2] [ng·h/mL] | Cmax [2] [ng/mL] | Tmax [2] [min] | half-life [2] [min] | AUC(0-inf) [2] [ng·h/mL] | clearance [2] [mL/min/kg] | Vd [2] [L/kg] |
| --- | --- | --- | --- | --- | --- | --- | --- | --- | --- | --- | --- |
| N=C(N)NCCC[C@@H](NC(=O)[C@@H](N)Cc1ccccc1)C(=O)N[C@@H](Cc1ccccc1)C(=O)N[C@@H](CCCCN)C(N)=O [Example 1 non-deuterated, Phe-D-Arg-Phe-Lys-NH2, reference compound] (H-F[dR]FK-NH2) | 194000 | 5.39 | 230000 M⁻¹ and 141000 M⁻¹ and 211000 M⁻¹ | 4.35 µM and 7.09 µM and 4.74 µM | 1950 | 3200 | 4.98 | 30 | 1960 | 8.55 | 0.27 |
| [2H]C([2H])(CN)C([2H])([2H])C[C@H](NC(=O)[C@H](Cc1c(C)cc(O)cc1C)NC(=O)[C@H](N)CCCNC(=N)N)C(=O)N[C@@H](Cc1ccccc1)C(N)=O [Example 11, D-Arg-DMT-(4,4,5,5-d4)-Lys-Phe-NH2] |  |  |  |  | 2920 | 4680 | 4.98 | 35.3 | 2940 | 5.7 | 0.23 |
| [2H]C([2H])(N)C([2H])([2H])C([2H])([2H])C([2H])([2H])[C@H](NC(=O)[C@H](Cc1ccccc1)NC(=O)[C@@H](CCCNC(=N)N)NC(=O)[C@@H](N)Cc1ccccc1)C(N)=O [Example 1, Phe-D-Arg-Phe-(3,3,4,4,5,5,6,6-octadeuterium)-Lys-NH2] | 389000 | 2.62 | 473000 M⁻¹ and 384000 M⁻¹ and 366000 M⁻¹ and 331000 M⁻¹ | 2.11 µM and 2.6 µM and 2.73 µM and 3.02 µM | 2300 | 4300 | 4.98 | 27 | 2310 | 7.24 | 0.21 |
| Cc1cc(O)cc(C)c1C[C@H](NC(=O)[C@H](N)CCCNC(=N)N)C(=O)N[C@@H](CCCCN)C(=O)N[C@@H](Cc1ccccc1)C(N)=O [Example 11 non-deuterated] (H-[dR][Dmt]KF-NH2) |  |  |  |  | 2120 | 2930 | 4.98 | 48 | 2120 | 7.97 | 0.29 |
